The structures appear in SMILES notation.

Chain of phosphorylated active hERK2 enzyme (P28482 whole entry): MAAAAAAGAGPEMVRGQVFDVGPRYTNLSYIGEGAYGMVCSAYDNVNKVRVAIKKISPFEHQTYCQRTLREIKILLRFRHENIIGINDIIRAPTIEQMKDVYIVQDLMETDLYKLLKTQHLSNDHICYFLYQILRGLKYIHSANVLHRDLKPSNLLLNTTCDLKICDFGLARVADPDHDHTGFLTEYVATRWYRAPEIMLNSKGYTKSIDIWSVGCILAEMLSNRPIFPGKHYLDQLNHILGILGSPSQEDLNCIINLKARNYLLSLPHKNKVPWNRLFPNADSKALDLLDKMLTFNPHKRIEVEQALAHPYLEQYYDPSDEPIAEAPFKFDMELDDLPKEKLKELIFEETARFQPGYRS

One assay addresses phosphorylated active hERK2 enzyme (Homo sapiens (Human), UniProt P28482). In words: Active Human ERK2 (hERK2) Activity Assay (IMAP-FP). The settings on record: Table 5, 0.5 nM hERK2, 30 μM ATP, 10 point titration, read-out: AERK2 IC50. It counts as biochemical. The gist of the method:
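IMAP fluorescence-polarization kinase assay: 0.5 nM activated hERK2 with 900 nM unlabeled plus 80 nM labeled peptide and 30 μM ATP, reacted 60 min. Quenched with IMAP beads in binding buffer with 24 mM NaCl; FP read after 60 min equilibration.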
As for `CC(=O)Nc1n[nH]c2cc(NC(=O)N[C@H](C)c3ccccc3)ncc12` [Example 47, (R)—N-(6-(3-(1-Phenylethyl)ureido)-1H-pyrazolo[4,3-c]pyridin-3-yl)acetamide], the concentration for half-maximal inhibition (IC50) is 0.66 nM.

With `C[C@@H](NC(=O)Nc1cc2[nH]nc(NS(=O)(=O)C3CNC3)c2cn1)c1ccccc1` [Example 56], the concentration for half-maximal inhibition (IC50) came out at 191 nM.

Still in this assay, the particulars now being: Table 6, 0.5 nM hERK2, 30 μM ATP, 10 point titration, read-out: AERK2 IC50.
Consider `C[C@@H](NC(=O)Nc1cc2[nH]nc(NCCN3CCOCC3)c2cn1)c1ccccc1` [Example 194, 1-{3-[(2-morpholin-4-ylethyl)amino]-1H-pyrazolo[4,3-c]-pyridin-6-yl}-3-[(1R)-1-phenylethyl]urea], for which the half-inhibitory concentration (IC50) worked out at 28.4 nM. On the same count and under the same terms, the figure for `C[C@@H]1CN(c2n[nH]c3cc(NC(=O)N[C@@H](c4ccccc4)C(C)(C)O)ncc23)C[C@H](C(F)(F)F)O1` [Example 103, 1-[(1S)-2-hydroxy-2-methyl-1-phenylpropyl]-3-{3-[(2R,6R)-2-methyl-6-(trifluoromethyl)-morpholin-4-yl]-1H-pyrazolo[4,3-c]-pyridin-6-yl}urea] is 1.1 nM; for `Nc1n[nH]c2cc(NC(=O)NC3COc4ccccc4C3)ncc12` (stereo not shown) [Example 257, 1-(3-amino-1H-pyrazolo[4,3-c]pyridin-6-yl)-3-(3,4-dihydro-2H-chromen-3-yl)urea] it is 37.1 nM. Regarding `CCN(C(C)=O)c1n[nH]c2cc(NC(=O)N[C@H](C)c3ccccc3)ncc12` [Example 350, N-ethyl-N-[6-({[(1R)-1-phenyl-ethyl]carbamoyl}-amino)-1H-pyrazolo[4,3-c]-pyridin-3-yl]-acetamide], the IC50 stood at 33.3 nM. Still for that read-out and setting: the same measure for `COC[C@@H](NC(=O)Nc1cc2[nH]nc(NC(C)C(F)(F)F)c2cn1)c1ccccc1` (stereo partly drawn) [Example 417, 1-[(1S)-2-methoxy-1-phenylethyl]-3-{3-[(2,2,2-trifluoro-1-methylethyl)-amino]-1H-pyrazolo[4,3-c]-pyridin-6-yl}urea]: 0.6 nM; for `C[C@@H](NC(=O)Nc1cc2[nH]nc(NC(=O)c3ccco3)c2cn1)c1ccccc1` [Example 207, N-[6-({[(1R)-1-phenylethyl]-carbamoyl}amino)-1H-pyrazolo[4,3-c]pyridin-3-yl]-furan-2-carboxamide]: 4.6 nM.

Consider `CCNc1n[nH]c2cc(NC(=O)N[C@H](C)c3ccc(Cl)c(Cl)c3)ncc12` [Example 248, 1-[(1R)-1-(3,4-dichlorophenyl)ethyl]-3-[3-(ethyl-amino)-1H-pyrazolo[4,3-c]-pyridin-6-yl]urea], for which the IC50 was determined as 3.2 nM. Still for that read-out and setting: the figure for `CC1CC(Nc2n[nH]c3cc(NC(=O)N[C@H](C)c4ccccc4)ncc23)C(C)O1` (stereo partly drawn) [Example 78, 1-(3-((2,5-dimethyltetrahydro-furan-3-yl)amino)-1H-pyrazolo[4,3-c]-pyridin-6-yl)-3-((R)-1-phenylethyl)urea] is 7.4 nM. With `CCNc1n[nH]c2cc(NC(=O)N[C@@H](CN(C)C)c3ccccc3)ncc12` [Example 239, 1-[(1R)-2-(dimethylamino)-1-phenylethyl]-3-[3-(ethylamino)-1H-pyrazolo[4,3-c]pyridin-6-yl]urea], the IC50 amounted to 27.4 nM. The same measure, in the same setting: the same measure for `CC(C)(O)[C@@H](NC(=O)Nc1cc2[nH]nc(NC(=O)N3CCOCC3)c2cn1)c1ccc(F)cc1` [Example 133, N-[6-({[(1S)-1-(4-fluorophenyl)-2-hydroxy-2-methylpropyl]-carbamoyl}amino)-1H-pyrazolo[4,3-c]pyridin-3-yl]-morpholine-4-carboxamide]: 2.4 nM. Still for that read-out and setting: the same measure for `CCNc1n[nH]c2cc(NC(=O)N[C@H](c3ccccc3)[C@@H]3CCCO3)ncc12` [Example 151, 1-[3-(ethylamino)-1H-pyrazolo[4,3-c]pyridin-6-yl]-3-{(R)-phenyl[(2S)-tetrahydrofuran-2-yl]methyl}urea]: 315 nM; for `COC(=O)Nc1n[nH]c2cc(NC(=O)N[C@H](C)C3CCCCC3)ncc12` [Example 292, methyl [6-({[(1R)-1-cyclohexylethyl]-carbamoyl}amino)-1H-pyrazolo[4,3-c]pyridin-3-yl]-carbamate]: 19.7 nM; for `C[C@@H](NC(=O)Nc1cc2[nH]nc(N[C@H](C)c3ccccn3)c2cn1)c1ccccc1` [Example 87, 1-[(1R)-1-phenylethyl]-3-(3-{[(1R)-1-pyridin-2-ylethyl]amino}-1H-pyrazolo[4,3-c]-pyridin-6-yl)urea]: 13.4 nM. On the same count and under the same terms, the figure for `C[C@@H](NC(=O)Nc1cc2[nH]nc(NC(=O)C3CCCC3)c2cn1)c1ccccc1` [Example 205, N-[6-({[(1R)-1-phenylethyl]-carbamoyl}amino)-1H-pyrazolo[4,3-c]pyridin-3-yl]-cyclopentane-carboxamide] is 1.2 nM. Turning to `COC(=O)Nc1n[nH]c2cc(NC(=O)N[C@H](C)c3ccc(Cl)c(C)c3)ncc12` [Example 304, methyl [6-({[(1R)-1-(4-chloro-3-methyl-phenyl)ethyl}-carbamoyl}amino)-1H-pyrazolo[4,3-c]pyridin-3-yl]-carbamate], the IC50 worked out at 3.4 nM. Still for that read-out and setting: the same measure for `O=C(Nc1cc2[nH]nc(N3CC4CCC(C3)O4)c2cn1)N[C@H](CO)c1ccccc1` [Example 439, 1-[(1S)-2-hydroxy-1-phenylethyl]-3-[3-(8-oxa-3-azabicyclo[3.2.1]-oct-3-yl)-1H-pyrazolo[4,3-c]-pyridin-6-yl]urea]: 1.9 nM; for `C[C@@H](NC(=O)Nc1cc2[nH]nc(NCC3CCC3)c2cn1)c1ccccc1` [Example 213, 1-{3-[(cyclobutylmethyl)amino]-1H-pyrazolo[4,3-c]-pyridin-6-yl}-3-[(1R)-1-phenylethyl]urea]: 2.2 nM; for `COC(=O)Nc1n[nH]c2cc(NC(=O)N[C@@H](c3ccccc3)C3(O)CCC3)ncc12` [Example 385, methyl [6-({[(S)-(1-hydroxycyclo-butyl)(phenyl)-methyl]carbamoyl}amino)-1H-pyrazolo[4,3-c]-pyridin-3-yl]-carbamate]: 2 nM. Consider `C[C@@H](NC(=O)Nc1cc2[nH]nc(N3CC[C@@H]3C)c2cn1)c1ccccc1` [Example 90, 1-{3-[(2S)-2-methylazetidin-1-yl]-1H-pyrazolo[4,3-c]-pyridin-6-yl}-3-[(1R)-1-phenylethyl]-urea], for which the half-inhibitory concentration (IC50) was found to be 14.9 nM. On the same count and under the same terms, the same measure for `C[C@@H](NC(=O)Nc1cc2[nH]nc(NCC3CCNCC3)c2cn1)c1ccccc1` [Example 165, 1-[(1R)-1-phenylethyl]-3-{3-[(piperidin-4-ylmethyl)amino]-1H-pyrazolo[4,3-c]pyridin-6-yl}urea]: 50.2 nM; for `C[C@H]1CN(c2n[nH]c3cc(NC(=O)N[C@@H](c4ccccc4)C(C)(C)O)ncc23)C[C@H](C(F)(F)F)O1` [Example 102, 1-[(1S)-2-hydroxy-2-methyl-1-phenylpropyl]-3-{3-[(2S,6R)-2-methyl-6-(trifluoromethyl)-morpholin-4-yl]-1H-pyrazolo[4,3-c]-pyridin-6-yl}urea]: 2.7 nM; for `CCNc1n[nH]c2cc(NC(=O)NC(C)c3ccc(F)cn3)ncc12` (stereo not shown) [Example 284]: 33 nM.

Take `C[C@H](Nc1n[nH]c2cc(NC(=O)N[C@H](C)c3ccccc3)ncc12)C(F)F` [Example 354, 1-(3-{[(1S)-2,2-difluoro-1-methyl-ethyl]amino}-1H-pyrazolo[4,3-c]-pyridin-6-yl)-3-[(1R)-1-phenylethyl]urea]: the IC50 worked out at 2.2 nM.

Values taken from patent US9233979B2, “Compounds that are ERK inhibitors” (Merck Sharp & Dohme Corp., priority 2012, dated 2016).
